Inconclusive results are not listed. Calls of active or inactive are those of the source. No rule for the calls is given here.
How the values were obtained:
[1] = blockers of dynein-driven microtubule transport – imaging, high-content imaging, dose response (AID 463136); conditions: HCS imaging, dynein-mediated cargo transport inhibition; inhibition at max concentration; at 50 µM; stronger effect = higher value;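 also: mouse mammary adenocarcinoma 3617.4 cells expressing GFP-tagged rat glucocorticoid receptor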; as to inhibition: reference of the scale not given here
[2] = test system: HCS imaging, dynein-mediated cargo transport inhibition; assay: as above

Structure (SMILES): C#CC(=O)N(c1ccc(OC)c(OC)c1)C(C(=O)NC1CCCC1)c1cccs1 (centres undefined)
- inhibition [1]: 40.2%
- IC50 [2]: > 50 µM (inactive)

Structure (SMILES): Cc1ccccc1N1C(=O)CC(Sc2nnc(-c3ccccc3)o2)C1=O (centres undefined)
- inhibition [1]: 16.4%
- IC50 [2]: > 50 µM (inactive)

Structure (SMILES): O=C1C=CC2C(c3ccc4c(c3)OCO4)CC1N2Cc1ccccc1 (centres undefined)
- inhibition [1]: 13%
- IC50 [2]: > 50 µM (inactive)

Structure (SMILES): CCOC(=O)C(=Cc1ccc(F)cc1)C(=O)OCC
- inhibition [1]: 73.4%
- IC50 [2]: 27.8 µM

Structure (SMILES): COc1ccc(-n2nc(C#N)c(Cl)cc2=O)cc1
- inhibition [1]: 65.4%
- IC50 [2]: 8.09 µM

Structure (SMILES): O=c1cc(C(F)(F)F)c2cc3c4c(c2o1)CCCN4CCC3
- inhibition [1]: 99.6%
- IC50 [2]: 5.51 µM

Structure (SMILES): COc1ccccc1N1C(=O)CC(Sc2n[nH]c(-c3cccc(C)c3)n2)C1=O (centres undefined)
- inhibition [1]: 5.74%
- IC50 [2]: > 50 µM (inactive)

Structure (SMILES): CC(C)(C)C(=O)/C=c1\s/c(=C\c2ccc(-c3ccc([N+](=O)[O-])cc3)o2)c(=O)n1CC(=O)NC(N)=O
- inhibition [1]: 98.8%
- IC50 [2]: 0.825 µM

Structure (SMILES): COC(=O)c1cc(NC(=O)c2cccc(Cl)c2)c(=O)oc1/C=C/Nc1cc(C)cc(C)c1
- inhibition [1]: 76.3%
- IC50 [2]: 2.54 µM

Structure (SMILES): CCOC(=O)CC1C(=O)NCCN1c1nc2ccc(C)cn2c(=O)c1/C=C1\SC(=S)N(C(C)CC)C1=O (centres undefined)
- inhibition [1]: 80.8%
- IC50 [2]: 27.3 µM

Structure (SMILES): CNCc1ccccc1Sc1cc(O)ccc1O
- inhibition [1]: 74.1%
- IC50 [2]: 38.5 µM

Structure (SMILES): COC(=O)/C=C\C(=O)Nc1cccc([N+](=O)[O-])c1
- inhibition [1]: 5.31%
- IC50 [2]: > 50 µM (inactive)

Structure (SMILES): CCC(=O)Nc1ccc(C(=O)Cn2ncc(Cl)c(Cl)c2=O)cc1
- inhibition [1]: 72.4%
- IC50 [2]: 15.7 µM

Structure (SMILES): O=C(c1ccc(F)cc1)C(CN1CCOCC1)c1ccccc1 (centres undefined)
- inhibition [1]: 85.7%
- IC50 [2]: 7.15 µM

Structure (SMILES): Cc1ccc(Sc2ccc(NC(=O)CCl)cc2)cc1C
- inhibition [1]: 16.3%
- IC50 [2]: > 50 µM (inactive)

Structure (SMILES): Nc1c(C(=O)C2CC2)sc2nc(-c3ccccc3)cc(C(F)(F)F)c12
- inhibition [1]: 134%
- IC50 [2]: 31.2 µM

Structure (SMILES): CCc1ccccc1NC(=O)CN(C)C(=O)Cn1ncc(Cl)c(Cl)c1=O
- inhibition [1]: 81.8%
- IC50 [2]: 7.32 µM

Structure (SMILES): CCOC(=O)C(=Cc1ccc(-n2cncn2)cc1)C(=O)OCC
- inhibition [1]: 89.8%
- IC50 [2]: 33.7 µM

Structure (SMILES): Cc1ccc(C(=O)Oc2oc(-c3ccco3)nc2C=Nc2ccc(Cl)cc2)cc1
- inhibition [1]: 65.2%
- IC50 [2]: 46.3 µM

Structure (SMILES): CCOC(=O)N1C/C(=C\c2ccccc2)C(=O)/C(=C/c2ccccc2)C1
- inhibition [1]: 78.7%
- IC50 [2]: 32.8 µM

Structure (SMILES): O=C1/C(=C/c2ccccc2[N+](=O)[O-])COc2ccccc21
- inhibition [1]: 39.6%
- IC50 [2]: > 50 µM (inactive)

Structure (SMILES): Cc1cc(C(=O)Cn2ncc(Cl)c(Cl)c2=O)c(C)n1CC(F)(F)F
- inhibition [1]: 78.6%
- IC50 [2]: 7.79 µM

Structure (SMILES): C#CC(=O)N(c1cccc(OC)c1)C(C(=O)NC1CCCC1)c1cccs1 (centres undefined)
- inhibition [1]: 16.5%
- IC50 [2]: > 50 µM (inactive)

Structure (SMILES): O=C1CCCCc2sc(Br)c([N+](=O)[O-])c2N1
- inhibition [1]: 66.9%
- IC50 [2]: 7.06 µM

Structure (SMILES): Cc1c(N=C2C=CC(=O)c3ccccc32)c(=O)n(-c2ccccc2)n1C
- inhibition [1]: 76.4%
- IC50 [2]: 39.6 µM

Structure (SMILES): Cc1ccc2nc(Cl)c3nnnn3c2c1
- inhibition [1]: 64%
- IC50 [2]: 9.43 µM

Structure (SMILES): Cc1ccc(CN=Cc2[nH]c3ccc(Br)c(Cl)c3c2O)cc1
- inhibition [1]: 99.2%
- IC50 [2]: 5.14 µM

Structure (SMILES): O=[N+]([O-])c1c(NCCCO)cc(Sc2nc3ccccc3s2)c2nonc12
- inhibition [1]: -7.73%
- IC50 [2]: > 50 µM (inactive)

Structure (SMILES): Cc1nc([N+](=O)[O-])c(Br)n1CC(=O)c1ccc(Br)cc1
- inhibition [1]: 82%
- IC50 [2]: 14.7 µM

Structure (SMILES): O=[N+]([O-])/C=C/c1cn(Cc2ccc(F)cc2)c2ccccc12
- inhibition [1]: 14%
- IC50 [2]: > 50 µM (inactive)

Structure (SMILES): Cc1nc([N+](=O)[O-])c(Br)n1CC(=O)c1ccccc1
- inhibition [1]: 82.1%
- IC50 [2]: 1.96 µM

Structure (SMILES): CCNc1ccc(Br)cc(C(=O)/C=C/c2ccc(Cl)cc2Cl)c1=O
- inhibition [1]: 99.2%
- IC50 [2]: 32.9 µM

Structure (SMILES): N#CC(C#N)=C1C=CC=CN1/C(=C\c1ccco1)C(=O)c1ccccc1
- inhibition [1]: 19.2%
- IC50 [2]: > 50 µM (inactive)

Structure (SMILES): CN(C(=O)CCl)C1CCCc2ccccc21 (centres undefined)
- inhibition [1]: 70.4%
- IC50 [2]: 6.32 µM

Structure (SMILES): COC(=O)c1cc(=O)n(Cc2ccc(OC)c(OC)c2)c(=Nc2ccc(F)cc2)s1
- inhibition [1]: 74.3%
- IC50 [2]: 24.6 µM

Structure (SMILES): CCCCNc1ccc2c3c(cccc13)C(=O)N(CCCC)C2=O
- inhibition [1]: 13.5%
- IC50 [2]: > 50 µM (inactive)

Structure (SMILES): CCOC(=O)c1cn(-c2c(Cl)cccc2Cl)c2cc(Cl)c([N+](=O)[O-])cc2c1=O
- inhibition [1]: 82.8%
- IC50 [2]: 29 µM

Reference: PubChem BioAssay AID463136 (University of Pittsburgh Molecular Library Screening Center, 2010)
